Counter-ions that a name gives are not always drawn. Like-named read-outs stand apart in the source and are kept apart here.
Test system: rgRSV224 virus
Test: Antiviral activity: inhibition of rgRSV224 (GFP-expressing RSV) replication in HeLa cells
Format: cell-based, respiratory syncytial virus
Conditions: human respiratory syncytial virus, HeLa, 72 h
In short: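 HeLa cells infected with GFP-expressing rgRSV224 at MOI 0.02 alongside 4-fold compound dilutions in duplicate (0.5% DMSO). Incubated 3 days at 37 °C; EC50 taken as 50% inhibition of GFP expression by laser microscopy. CC50 measured in parallel uninfected cells by ATP content after 3 days; SI = CC50/EC50.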

[1] = read-out: pEC50, rgRSV224 (MOI=0.02) in HeLa cells, GFP expression three days post-virus exposure (converted)
[2] = read-out: RSV-wt_pEC50, rgRSV224 (MOI=0.02) in HeLa cells, GFP expression three days post-virus exposure

| SMILES | EC50 [1] | EC50 [2] |
| --- | --- | --- |
| CC(C)OC(=O)N1CCC2(CC1)C(=O)N(Cc1cc3cc(Cl)ccc3n1CCCC#N)c1cnccc12 [Compound 77, isopropyl 1′-((5-chloro-1-(3-cyanopropyl)-1H-indol-2-yl)-methyl)-2′-oxo-1′,2′-dihydrospiro[piperidine-4,3′-pyrrolo-[2,3-c]pyridine]-1-carboxylate] | < 0.158 nM | – |
| O=C1N(Cc2nc3nc(Cl)ccc3n2CCCC(F)(F)F)c2cnccc2C12CCCC2 [Compound 65, 1′-((5-chloro-1-(4,4,4-trifluorobutyl)-1H-imidazo[4,5-b]-pyridin-2-yl)methyl)spiro[cyclopentane-l,3′-pyrrolo[2,3-c]-pyridin]-2′(1′H)-one] | 0.631 nM | – |
| CC(C)(O)C(=O)N1CC[C@@]2(C1)C(=O)N(Cc1nc3cc(Cl)ccc3n1CCCS(C)(=O)=O)c1ccccc12 [Compound 121, (R)-1-({5-Chloro-1-[3-(methylsulfonyl)propyl]-1H-benzimidazol-2-yl}methyl)-1′-(2-hydroxy-2-methylpropanoyl)spiro[indole-3,3′-pyrrolidin]-2(1H)-one] | – | 8.51 nM |
| CC(C)(C)OC(=O)N1CC2(C1)C(=O)N(Cc1nc3cc(Cl)ccc3n1CCCS(C)(=O)=O)c1ccccc12 [Compound 4, tert-butyl 1′-({5-chloro-1-[3-(methylsulfonyl)propyl]-1H-benzimidazol-2-yl}methyl)-2′-oxo-1′,2′-dihydro-1H-spiro[azetidine-3,3′-indole]-1-carboxylate] | 0.0794 nM | – |
| COC(=O)N1CCC2(CC1)C(=O)N(Cc1cc3cc(Cl)ccc3n1CCCC#N)c1cnccc12 [Compound 76] | < 0.158 nM | – |
| N#CCCCn1c(CN2C(=O)C3(CCN(S(=O)(=O)c4cccs4)CC3)c3ccncc32)cc2cc(Cl)ccc21 [Compound 96, 4-(5-Chloro-2-{[2′-oxo-1-(thiophen-2-ylsulfonyl)spiro-[piperidine-4,3′-pyrrolo[2,3-c]pyridin]-1′(2′H)-yl]methyl}-1H-indol-1-yl)butanenitrile] | – | 0.427 nM |
| N#CCCCn1c(CN2C(=O)C3(CCNCC3)c3ccncc32)nc2cc(Cl)ccc21 [Compound 84, 4-(5-chloro)-2-((2′-oxospiro[piperidine-4,3′-pyrrolo[2,3-c]-pyridin]-1′(2′H)-yl)methyl)-1H-benzo[d]imidazol-1-yl)butanenitrile hydrochloride] | 0.631 nM | – |
| N#CCCCn1c(COC2CC3(C2)C(=O)N(Cc2nc4cc(Cl)ccc4n2CCCC#N)c2ccccc23)nc2cc(Cl)ccc21 [Compound 110, 4-(5-chloro-2-(((1S,3S)-1′-((5-chloro-1-(3-cyanopropyl)-1H-benzo[d]imidazol-2-yl)methyl)-2′-oxospiro[cyclobutane-1,3′-indoline]-3-yloxy)methyl)-1H-benzo[d]imidazol-1-yl)butanenitrile] | – | 1.45 nM |
| N#CCCCn1c(CN2C(=O)C3(CN(S(=O)(=O)C4CC4)C3)c3ccccc32)cc2cc(Cl)ccc21 [Compound 61, 4-(5-chloro-2-{[1-(cyclopropylsulfonyl)-2′-oxospiro-[azetidine-3,3′-indol]-1′(2′H)-yl]methyl}-1H-indol-1-yl)-butanenitrile] | 0.398 nM | – |
| O=C(OCc1ccccc1)N1CCC2(CC1)C(=O)N(Cc1nc3cc(Cl)ccc3n1CCCC(F)(F)F)c1ccccc12 [Compound 50, benzyl 1-((5-chloro-1-(4,4,4-trifluorobutyl)-1H-benzo[d]-imidazol-2-yl)methyl)-2-oxospiro[indoline-3,4′-piperidine]-1′-carboxylate] | 10 nM | – |
| CC(C)(C)OC(=O)N1CCC2(C1)C(=O)N(Cc1nc3cc(Cl)ccc3n1CCCC#N)c1ccccc12 (stereo not drawn) [Compound 157, tert-Butyl 1-{[5-chloro-1-(3-cyanopropyl)-1H-benzimidazol-2-yl]methyl}-2-oxo-1,2-dihydro-1′H-spiro[indole-3,3′-pyrrolidine]-1′-carboxylate] | – | 3.98 nM |
| CC(C)(O)C(=O)N1CC2(C1)C(=O)N(Cc1cc3cc(Cl)ccc3n1CCCS(C)(=O)=O)c1ccccc12 [Compound 152, 1′-({5-Chloro-1-[3-(methylsulfonyl)propyl]-1H-indol-2-yl}methyl)-1-(2-hydroxy-2-methylpropanoyl)spiro[azetidine-3,3′-indol]-2′(1′H)-one] | – | 1.58 nM |
| CC(C)(O)CN1CCC2(CC1)C(=O)N(Cc1nc3cc(Cl)ccc3n1CCCS(C)(=O)=O)c1ccc(Cl)cc12 [Compound 25, 5-chloro-1-((5-chloro-1-(3-(methylsulfonyl)propyl)-1H-benzo[d]imidazol-2-yl)methyl)-1-(2-hydroxy-2-methylpropyl)spiro[indoline-3,4′-piperidin]-2-one] | 31.6 nM | – |
| N#CCCCn1c(CN2C(=O)C3(CNC3)c3ccccc32)cc2cc(Cl)ccc21 [Compound 59, 4-{5-chloro-2-[(2′-oxospiro[azetidine-3,3′-indol]-1′(2′H )-yl)-methyl]-1H-indol-1-yl}butanenitrile] | 5.01 nM | – |
| CS(=O)(=O)CCCn1c(CN2C(=O)C3(CN(S(=O)(=O)c4ccc(F)cc4)C3)c3ccccc32)nc2cc(Cl)ccc21 [Compound 33, 1′-({5-chloro-1-[3-(methylsulfonyl)propyl]-1H-benzimidazol-2-yl}methyl)-1-[(4-fluorophenyl)-sulfonyl]spiro[azetidine-3,3′-indol]-2′(1′H)-one] | 0.158 nM | – |
| N#CCCCn1c(CN2C(=O)C3(CCN(S(=O)(=O)C4CC4)CC3)c3ccncc32)nc2cc(Cl)ccc21 [Compound 112, 4-(5-Chloro-2-{[1-(cyclopropylsulfonyl)-2′-oxospiro-[piperidine-4,3′-pyrrolo[2,3-c]pyridin]-1′(2′H)-yl]methyl}-1H-benzimidazol-1-yl)butanenitrile] | – | 0.0251 nM |
| O=C(OC1CCCC1)N1CCC2(CC1)C(=O)N(Cc1nc3cc(Cl)ccc3n1CCCC(F)(F)F)c1ccccc12 [Compound 47, Cyclopentyl 1-((5-chloro-1-(4,4,4-trifluorobutyl)-1H-benzo[d]imidazol-2-yl)methyl)-2-oxospiro[indoline-3,4′-piperidine]-1′-carboxylate] | 1.58 nM | – |
| N#CCCCn1c(CN2c3ccccc3[C@]3(C[C@H](N)C3)C2=O)nc2cc(Cl)ccc21 [Compound 149, 4-(2-(((1s,3s)-3-amino-2′-oxospiro[cyclobutane-1,3′-indolin]-1′-yl)methyl)-5-chloro-1H-benzo[d]imidazol-1-yl)butanenitrile] | – | 1.2 nM |
| CC(C)(C)OC(=O)N1CCC2(CC1)C(=O)N(Cc1nc3cc(Cl)ccc3n1CCCS(C)(=O)=O)c1cnccc12 [Compound 14, tert-butyl 1′-((5-chloro-1-(3-(methylsulfonyl)propyl)-1H-benzo[d]imidazol-2-yl)methyl)-2′-oxo-1′,2′-dihydrospiro-[piperidine-4,3′-pyrrolo[2,3-c]pyridine]-1-carboxylate] | < 0.158 nM | – |
| CC(C)(C)OC(=O)N1CCC2(CC1)C(=O)N(Cc1nc3cc(Cl)ccc3n1CCCC#N)c1cnccc12 [Compound 53, tert-butyl 1′-((5-chloro-1-(3-cyanopropyl)-1H-benzo[d]-imidazol-2-yl)methyl)-2′-oxo-1′,2′-dihydrospiro[piperidine-4,3′-pyrrolo[2,3-c]pyridine]-1-carboxylate] | < 0.158 nM | – |
| CS(=O)(=O)CCCn1c(CN2C(=O)C3(CCN(S(=O)(=O)c4ccc5nccnc5c4)CC3)c3ccccc32)nc2cc(Cl)ccc21 [Compound 16, 1-((5-chloro-1-(3-(methylsulfonyl)propyl)-1H-benzo[d]-imidazol-2-yl)methyl)-1′-(quinoxalin-6-ylsulfonyl)spiro-[indoline-3,4′-piperidin]-2-one] | < 0.158 nM | – |
| CC(C)(O)C(=O)N1CC[C@]2(C1)C(=O)N(Cc1nc3cc(Cl)ccc3n1CCCS(C)(=O)=O)c1ccccc12 [Compound 122, (S)-1-((5-chloro-1-(3-(methylsulfonyl)propyl)-1H-benzo[d]imidazol-2-yl)methyl)-1′-(2-hydroxy-2-methylpropanoyl)spiro[indoline-3,3′-pyrrolidin]-2-one] | – | 8.32 nM |
| CC(C)(C)OC(=O)N1CC2(C1)C(=O)N(Cc1cc3cc(Cl)ccc3n1CCCS(C)(=O)=O)c1ccccc12 [Compound 163, tert-Butyl 1′-({5-chloro-1-[3-(methylsulfonyl)propyl]-1H-indol-2-yl}methyl)-2′-oxo-1′,2′-dihydro-1H-spiro[azetidine-3,3′-indole]-1-carboxylate] | – | 0.2 nM |
| CC(C)(C)OC(=O)N1CCC2(CC1)C(=O)N(Cc1nc3cc(Cl)ccc3n1CCCS(C)(=O)=O)c1ccc(Br)cc12 [Compound 23, tert-butyl 5-bromo-1-((5-chloro-1-(3-(methyl-sulfonyl)propyl)-1H-benzo[d]imidazol-2-yl)methyl)-2-oxospiro[indoline-3,4′-piperidine]-1′-carboxylate] | 7.94 nM | – |
| CS(=O)(=O)CCCn1c(CN2C(=O)C3(CCNCC3)c3ccccc32)nc2cc(Cl)ccc21 [Compound 21, 1-((5-chloro-1-(3-(methylsulfonyl)propyl)-1H-benzo[d]-imidazol-2-yl)methyl)spiro[indoline-3,4′-piperidin]-2-one] | 5.01 nM | – |
| CC(C)(C)OC(=O)N1CCC2(CC1)C(=O)N(Cc1nc3cc(Br)ccc3n1CCCS(C)(=O)=O)c1ccccc12 [Compound 17, tert-butyl 1-((5-bromo-1-(3-(methylsulfonyl)propyl)-1H-benzo[d]imidazol-2-yl)methyl)-2-oxospiro[indoline-3,4′-piperidine]-1′-carboxylate] | 0.316 nM | – |
| COC(=O)N1CCC2(CC1)C(=O)N(Cc1nc3cc(Cl)ccc3n1CCCC#N)c1cnccc12 [Compound 98, Methyl 1′-{[5-chloro-1-(3-cyanopropyl)-1H-benzimidazol-2-yl]methyl}-2′-oxo-1′,2′-dihydro-1H-spiro[piperidine-4,3′-pyrrolo[2,3-c]pyridine]-1-carboxylate] | – | 0.0676 nM |

From patent US9617289B2, “RSV antiviral compounds” (JANSSEN R&D IRELAND, priority 2012, dated 2017)
